# Values joined by “and” are separate entries in the source; they are usually repeats but may differ in a detail not shown here. Equal values may be shown once. Read-outs that look alike come from different tables or passages of the source.
# Key:
# [1] = tested on: H3K27me3 in HUDEP-2 cells; assay: Western blotting of H3K27me3; type: cell-based, human; conditions: peer review file
# Description: Preparation of cell lysates and western blotting were performed as described previously. Protein from cells lysates in lysis buffer (50 mM Tris-HCl (pH 7.5), 150 mM NaCl, 5 mM EDTA, 0.1% NP-40, 1 mM dithiothreitol) were separated by sodium dodecyl sulfate–polyacrylamide gel electrophoresis (SDS-PAGE) and transferred to a polyvinylidene difluoride (PVDF) membrane (Millipore) by electroblotting. The membranes incubated with primary antibodies overnight at 4 °C and secondary antibodies for 1 h at room temperature. The immune complexes were detected with the Immobilon Western Chemiluminescent HRP Substrate (Millipore). Luminescence was analyzed on a FUSION SOLO S (Vilber). Western blot bands were visualized using Evolution Capt software (M&S Instruments Inc.). Primary antibodies used were anti-G9a (1:1000, CST, #3306), anti–α-tubulin (1:5000, Abcam, ab18251), anti-H3K9me2 (1:3000, Abcam, ab1220), anti-H3 (1:5000, Abcam, ab1791), anti-H3K27me3 (1:3000, Sigma, 07-449), anti-GLP (1:1000, CST, #35005), anti-FLAG (100 ng/ml, Fujifilm, 01422383), anti-His (1:5000, MBL, PM032), anti-BCL11A (1:1000, abcam, ab19487), anti-ZBTB7A (1:1000, CST, #50565), anti-CHD3 (1:1000, Novus Biologicals, NB100-60412), and anti-CHD4 (1:1000, abcam, ab240640). Uncropped scans of all of the blots are available in Source Data file.
# [2] = tested on: Salmonella typhimurium TA98; assay: Ames test, TA98
# Description: The Salmonella mutagenicity assay was performed by pre-incubating the test compounds for 20 min with Salmonella typhimurium strains TA98 and TA100, with and without metabolic activation (S9 mixture).
# After this time 2 mL of top agar was added to the mixture and poured on to a plate containing minimum agar. The plates were incubated at 37 °C for 49 h and the His ± revertant colonies were counted manually and automatically by a colony counter (Colony analyzer CA-11D systems, System science Co.,Ltd.). The influence of metabolic activation was tested by adding 500 μL of 10% S9 mixture. All experiments were performed in duplicate. […] DMSO served as the negative control (100 μL/plate). The mutagenic index (MI, the average number of revertants per plate divided by the average number of revertants per plate from the negative control) was also calculated for each dose. A sample was considered positive when the MI was equal to or greater than 2 for at least one of the tested doses.
# EZH1 = EZH1 (Homo sapiens, UniProt Q92800); assay: Radioisotope-based methyltransferase assay (selectivity)
# EZH2 = EZH2 (Homo sapiens, UniProt Q15910); assay: biochemical
# SUV39H1 = biological target: T1, SUV39H1 (Homo sapiens, UniProt O43463); assay: Radioisotope-based methyltransferase assay (selectivity); type: biochemical
# T1 construct: purchased Reaction Biology
# T1 sequence (O43463 whole entry): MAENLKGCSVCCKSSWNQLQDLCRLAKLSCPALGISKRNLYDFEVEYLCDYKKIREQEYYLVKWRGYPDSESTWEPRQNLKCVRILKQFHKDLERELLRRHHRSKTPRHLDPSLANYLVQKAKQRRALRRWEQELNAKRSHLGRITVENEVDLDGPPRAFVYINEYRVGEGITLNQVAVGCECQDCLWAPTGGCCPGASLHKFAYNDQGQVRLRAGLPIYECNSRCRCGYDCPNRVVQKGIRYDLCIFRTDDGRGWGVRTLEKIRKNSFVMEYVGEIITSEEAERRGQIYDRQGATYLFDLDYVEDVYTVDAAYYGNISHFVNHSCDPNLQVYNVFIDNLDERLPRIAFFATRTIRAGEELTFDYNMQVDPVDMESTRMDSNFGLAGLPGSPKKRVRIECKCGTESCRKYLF
# PRDM9 = biological target: T2, PRDM9 (Homo sapiens, UniProt Q9NQV7); assay: as above; type: biochemical; conditions: read-out: IC50
# T2 construct: purchased Reaction Biology
# T2 sequence (Q9NQV7 whole entry): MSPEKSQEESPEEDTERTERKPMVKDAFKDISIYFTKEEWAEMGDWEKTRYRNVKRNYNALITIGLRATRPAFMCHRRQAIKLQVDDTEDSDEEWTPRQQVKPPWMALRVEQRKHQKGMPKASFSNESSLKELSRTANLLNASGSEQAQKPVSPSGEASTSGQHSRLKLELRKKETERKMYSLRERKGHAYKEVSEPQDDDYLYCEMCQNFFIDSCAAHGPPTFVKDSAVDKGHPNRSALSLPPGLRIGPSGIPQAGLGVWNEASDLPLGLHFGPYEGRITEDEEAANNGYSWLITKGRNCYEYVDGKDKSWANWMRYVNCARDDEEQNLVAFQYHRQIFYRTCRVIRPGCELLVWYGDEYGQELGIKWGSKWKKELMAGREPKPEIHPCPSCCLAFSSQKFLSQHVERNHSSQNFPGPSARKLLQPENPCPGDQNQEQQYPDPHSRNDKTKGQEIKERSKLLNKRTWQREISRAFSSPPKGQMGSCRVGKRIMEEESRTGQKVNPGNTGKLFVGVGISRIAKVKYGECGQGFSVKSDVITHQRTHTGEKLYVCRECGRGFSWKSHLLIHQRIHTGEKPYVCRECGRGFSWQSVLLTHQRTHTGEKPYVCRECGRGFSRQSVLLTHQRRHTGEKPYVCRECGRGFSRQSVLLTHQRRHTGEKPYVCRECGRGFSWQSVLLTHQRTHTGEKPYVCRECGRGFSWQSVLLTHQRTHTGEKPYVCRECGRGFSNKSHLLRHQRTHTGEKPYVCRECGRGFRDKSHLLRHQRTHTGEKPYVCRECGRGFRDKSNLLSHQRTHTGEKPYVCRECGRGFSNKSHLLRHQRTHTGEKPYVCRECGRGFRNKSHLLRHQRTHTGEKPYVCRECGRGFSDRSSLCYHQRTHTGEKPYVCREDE
# [3] = Liver microsomal stability assay, dog; type: in vitro ADME; conditions: for Metabolic stability, % remaining of RK-701: Dog
# Description: [Human/Rat] Liver microsome analyses (human, rat) were performed in triplicate by the Sumika Chemical Analysis Service (SCAS) according to the standard protocols. […] [Dog/Monkey] Liver microsome analyses (dog, monkey) were performed in duplicate by RIKEN according to the same protocols as SCAS.
# MLL2 [4] = biological target: MLL2
# Sequence of MLL2 (O14686 5319-5537): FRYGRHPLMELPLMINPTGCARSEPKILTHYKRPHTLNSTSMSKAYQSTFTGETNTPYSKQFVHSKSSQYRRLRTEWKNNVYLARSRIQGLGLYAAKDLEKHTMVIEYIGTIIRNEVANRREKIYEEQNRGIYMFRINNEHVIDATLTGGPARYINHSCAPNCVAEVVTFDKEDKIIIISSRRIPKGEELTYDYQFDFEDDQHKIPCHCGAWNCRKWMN
# Sequence of MLL2 (Q9C005 whole entry, further chain): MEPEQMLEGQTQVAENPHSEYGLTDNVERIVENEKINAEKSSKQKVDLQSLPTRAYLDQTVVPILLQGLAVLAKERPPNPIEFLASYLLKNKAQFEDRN
# Sequence of MLL2 (Q15291 whole entry, further chain): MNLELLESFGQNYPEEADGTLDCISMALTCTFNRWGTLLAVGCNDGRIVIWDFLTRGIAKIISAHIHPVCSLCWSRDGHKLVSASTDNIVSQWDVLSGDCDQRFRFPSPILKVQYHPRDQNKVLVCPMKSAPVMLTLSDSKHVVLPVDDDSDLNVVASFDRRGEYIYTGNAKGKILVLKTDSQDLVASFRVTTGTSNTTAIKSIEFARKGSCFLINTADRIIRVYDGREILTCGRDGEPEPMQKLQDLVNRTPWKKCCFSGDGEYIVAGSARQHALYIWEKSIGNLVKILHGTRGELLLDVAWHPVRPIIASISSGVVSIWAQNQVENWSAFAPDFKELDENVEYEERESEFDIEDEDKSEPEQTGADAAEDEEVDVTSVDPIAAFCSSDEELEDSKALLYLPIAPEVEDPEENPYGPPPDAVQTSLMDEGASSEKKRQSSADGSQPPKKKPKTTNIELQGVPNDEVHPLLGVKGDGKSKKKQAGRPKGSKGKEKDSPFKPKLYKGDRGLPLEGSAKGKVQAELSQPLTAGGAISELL
# Sequence of MLL2 (Q9UBL3 whole entry, further chain): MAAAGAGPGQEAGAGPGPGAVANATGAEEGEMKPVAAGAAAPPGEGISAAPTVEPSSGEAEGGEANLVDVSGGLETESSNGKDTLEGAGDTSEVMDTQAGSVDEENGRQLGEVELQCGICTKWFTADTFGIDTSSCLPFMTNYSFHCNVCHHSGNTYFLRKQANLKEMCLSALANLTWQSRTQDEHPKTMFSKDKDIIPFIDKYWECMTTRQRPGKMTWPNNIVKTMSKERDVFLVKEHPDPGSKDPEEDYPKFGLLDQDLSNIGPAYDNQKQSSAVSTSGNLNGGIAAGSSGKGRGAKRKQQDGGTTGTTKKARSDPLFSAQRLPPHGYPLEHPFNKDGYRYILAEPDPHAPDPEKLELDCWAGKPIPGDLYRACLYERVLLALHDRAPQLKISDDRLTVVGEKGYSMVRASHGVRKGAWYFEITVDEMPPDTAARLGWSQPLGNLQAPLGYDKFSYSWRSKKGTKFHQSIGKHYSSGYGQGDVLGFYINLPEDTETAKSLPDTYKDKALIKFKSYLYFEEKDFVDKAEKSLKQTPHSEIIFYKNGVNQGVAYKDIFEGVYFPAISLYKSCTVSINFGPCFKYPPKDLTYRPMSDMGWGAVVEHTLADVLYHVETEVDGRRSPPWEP
# DNMT1 = DNMT1 (Homo sapiens, UniProt P26358); assay: biochemical
# Sequence of DNMT1 (P26358 whole entry): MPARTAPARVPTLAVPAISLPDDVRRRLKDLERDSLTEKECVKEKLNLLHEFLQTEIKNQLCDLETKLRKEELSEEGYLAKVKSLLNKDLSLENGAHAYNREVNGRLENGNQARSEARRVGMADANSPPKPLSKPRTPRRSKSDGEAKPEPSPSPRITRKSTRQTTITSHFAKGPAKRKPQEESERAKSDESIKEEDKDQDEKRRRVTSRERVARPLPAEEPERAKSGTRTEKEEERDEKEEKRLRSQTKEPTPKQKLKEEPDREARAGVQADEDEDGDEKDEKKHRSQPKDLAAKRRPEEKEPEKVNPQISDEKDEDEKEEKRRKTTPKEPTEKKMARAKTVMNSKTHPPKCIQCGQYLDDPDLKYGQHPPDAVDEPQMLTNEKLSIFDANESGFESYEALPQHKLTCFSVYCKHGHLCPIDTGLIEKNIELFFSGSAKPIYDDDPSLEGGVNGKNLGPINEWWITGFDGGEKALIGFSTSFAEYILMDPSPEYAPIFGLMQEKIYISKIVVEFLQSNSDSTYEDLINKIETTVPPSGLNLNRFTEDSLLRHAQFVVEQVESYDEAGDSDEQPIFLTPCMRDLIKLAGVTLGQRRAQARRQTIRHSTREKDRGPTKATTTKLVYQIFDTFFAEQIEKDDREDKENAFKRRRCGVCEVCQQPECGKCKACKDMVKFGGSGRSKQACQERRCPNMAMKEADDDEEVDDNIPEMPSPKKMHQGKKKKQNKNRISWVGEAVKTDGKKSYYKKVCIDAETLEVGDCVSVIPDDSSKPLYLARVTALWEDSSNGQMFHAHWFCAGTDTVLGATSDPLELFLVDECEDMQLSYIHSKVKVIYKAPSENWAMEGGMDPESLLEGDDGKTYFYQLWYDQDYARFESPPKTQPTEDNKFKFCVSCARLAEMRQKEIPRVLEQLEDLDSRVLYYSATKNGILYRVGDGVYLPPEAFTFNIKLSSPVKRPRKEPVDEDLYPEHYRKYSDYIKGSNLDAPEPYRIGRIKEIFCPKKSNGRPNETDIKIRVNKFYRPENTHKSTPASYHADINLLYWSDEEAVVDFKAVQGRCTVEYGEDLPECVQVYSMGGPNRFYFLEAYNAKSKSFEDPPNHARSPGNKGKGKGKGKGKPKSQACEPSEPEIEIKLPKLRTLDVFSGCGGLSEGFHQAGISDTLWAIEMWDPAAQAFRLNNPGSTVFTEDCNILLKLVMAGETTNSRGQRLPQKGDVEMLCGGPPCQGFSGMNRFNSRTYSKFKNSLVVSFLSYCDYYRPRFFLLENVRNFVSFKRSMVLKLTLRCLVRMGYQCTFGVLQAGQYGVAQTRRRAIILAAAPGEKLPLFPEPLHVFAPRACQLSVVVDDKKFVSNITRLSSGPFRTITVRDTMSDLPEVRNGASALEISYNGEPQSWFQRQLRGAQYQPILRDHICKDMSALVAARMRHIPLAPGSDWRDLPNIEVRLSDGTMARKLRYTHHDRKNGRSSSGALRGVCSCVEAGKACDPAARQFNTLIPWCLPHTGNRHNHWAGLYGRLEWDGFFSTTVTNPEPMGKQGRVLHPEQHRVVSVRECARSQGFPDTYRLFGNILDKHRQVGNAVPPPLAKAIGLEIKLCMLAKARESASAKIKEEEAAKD
# MLL2 [5] = biological target: MLL2 (Homo sapiens, UniProt O14686)
# Sequence of MLL2 (Homo sapiens, UniProt O14686) (O14686 5319-5537): as the sequence (O14686 5319-5537) above
# Sequence of MLL2 (Homo sapiens, UniProt O14686) (Q9C005 whole entry, further chain): as the sequence (Q9C005 whole entry, further chain) above
# Sequence of MLL2 (Homo sapiens, UniProt O14686) (Q15291 whole entry, further chain): as the sequence (Q15291 whole entry, further chain) above
# Sequence of MLL2 (Homo sapiens, UniProt O14686) (Q9UBL3 whole entry, further chain): as the sequence (Q9UBL3 whole entry, further chain) above
smiles,measurement,setting,value
Cc1c(C(=O)NC(CCC2CC2)C(=O)Nc2ccc(C#N)cc2)[nH]c2c1C(=O)CC(C)(C)C2 (centres unmarked) [RK-701],H3K27me3,[1]; 0.1 µM,no effect on H3K27me3
same,H3K27me3,[1],slightly decrease H3K27me3 only at high
same,Number of reverants/plate,"[2]; TA98, + S9, frameshift mutation, 4.88 μg/plate",28
same,Number of reverants/plate,"[2]; TA98, + S9, frameshift mutation, 19.5 μg/plate",29 and 28
same,Number of reverants/plate,"[2]; TA98, + S9, frameshift mutation, 78.1 μg/plate",31 and 30
same,Number of reverants/plate,"[2]; TA98, + S9, frameshift mutation, 313 μg/plate",28
same,Number of reverants/plate,"[2]; TA98, + S9, frameshift mutation, 1250* μg/plate",32 and 28
same,Number of reverants/plate,"[2]; TA98, + S9, frameshift mutation, 2500* μg/plate",28
same,Number of reverants/plate,"[2]; TA98, + S9, frameshift mutation, 5000* μg/plate",28 and 23
same,Number of revertants/plate,"[2]; TA98, +S9, 4.88 μg/plate",28
same,Number of revertants/plate,"[2]; TA98, +S9, 19.5 μg/plate",29
same,Number of revertants/plate,"[2]; TA98, +S9, 78.1 μg/plate",31
same,Number of revertants/plate,"[2]; TA98, +S9, 313 μg/plate",28
same,Number of revertants/plate,"[2]; TA98, +S9, 1250 μg/plate, insoluble material",30
same,Number of revertants/plate,"[2]; TA98, +S9, 2500 μg/plate, insoluble material",28
same,Number of revertants/plate,"[2]; TA98, +S9, 5000 μg/plate, insoluble material",26
same,Number of reverants/plate,"[2]; TA98, - S9, frameshift mutation, 4.88 μg/plate",13 and 20
same,Number of reverants/plate,"[2]; TA98, - S9, frameshift mutation, 19.5 μg/plate",12 and 13
same,Number of reverants/plate,"[2]; TA98, - S9, frameshift mutation, 78.1 μg/plate",14 and 20
same,Number of reverants/plate,"[2]; TA98, - S9, frameshift mutation, 313 μg/plate",14 and 12
same,Number of reverants/plate,"[2]; TA98, - S9, frameshift mutation, 1250* μg/plate",11 and 12
same,Number of reverants/plate,"[2]; TA98, - S9, frameshift mutation, 2500* μg/plate",11 and 12
same,Number of reverants/plate,"[2]; TA98, - S9, frameshift mutation, 5000* μg/plate",13 and 16
same,Number of revertants/plate,"[2]; TA98, -S9, 4.88 μg/plate",17
same,Number of revertants/plate,"[2]; TA98, -S9, 19.5 μg/plate",13
same,Number of revertants/plate,"[2]; TA98, -S9, 78.1 μg/plate",17
same,Number of revertants/plate,"[2]; TA98, -S9, 313 μg/plate",13
same,Number of revertants/plate,"[2]; TA98, -S9, 1250 μg/plate, insoluble material",12
same,Number of revertants/plate,"[2]; TA98, -S9, 2500 μg/plate, insoluble material",12
same,Number of revertants/plate,"[2]; TA98, -S9, 5000 μg/plate, insoluble material",15
same,mutagenicity,"[2]; TA98, regardless of metabolic activation",no mutagenicity
same,IC50,EZH1,> 100 µM
same,IC50,EZH2,> 100 µM
same,IC50,"SUV39H1; SUV39H1, 1 μM SAM",> 100 µM
same,IC50,"SUV39H1; SUV39H1, RK-701 in duplicate",> 100 µM
same,IC50,"PRDM9; PRDM9, 1 μM SAM",> 100 µM
same,IC50,"PRDM9; PRDM9, RK-701 in duplicate",> 100 µM
same,"Metabolic stability, % remaining of RK-701","[3]; Time 5, replicate values",67.6%
same,"Metabolic stability, % remaining of RK-701","[3]; Time 10, replicate values",70.7% and 62.6%
same,"Metabolic stability, % remaining of RK-701","[3]; Time 20, replicate values",60.6% and 44.6%
same,"Metabolic stability, % remaining of RK-701","[3]; Time 30, replicate values",51.3% and 40.3%
same,"Metabolic stability, % remaining of RK-701","[3]; Time 45, replicate values",47% and 30%
same,"Metabolic stability, % remaining of RK-701","[3]; Time 60, replicate values",37.6% and 29.4%
same,"remaining at 5 min, 1 µM","[3]; dog, liver microsomes, Metabolic stability, % remaining of RK-701, Dog, Time 5, replicate values",72.6%
same,"remaining at 10 min, 1 µM","[3]; dog, liver microsomes, Metabolic stability, % remaining of RK-701, Dog, Time 10, replicate values",57%
same,"remaining at 20 min, 1 µM","[3]; dog, liver microsomes, Metabolic stability, % remaining of RK-701, Dog, Time 20, replicate values",53.4%
same,"remaining at 30 min, 1 µM","[3]; dog, liver microsomes, Metabolic stability, % remaining of RK-701, Dog, Time 30, replicate values",48.4%
same,"remaining at 45 min, 1 µM","[3]; dog, liver microsomes, Metabolic stability, % remaining of RK-701, Dog, Time 45, replicate values",37.1%
same,"remaining at 60 min, 1 µM","[3]; dog, liver microsomes, Metabolic stability, % remaining of RK-701, Dog, Time 60, replicate values",30.9%
same,microsomal CLint at 1 μM,"[3]; dog, liver microsomes, Dug, read-out: Metabolic stability in liver microsomes CLint",28 µL/min/mg
same,IC50,MLL2 [4],> 100 µM
same,IC50,DNMT1,> 100 µM
"Nc1ncnc2c1ncn2[C@@H]1O[C@H](CSCC[C@H](N)C(=O)O)[C@@H](O)[C@H]1O [SAH, S-(5'-Adenosyl)-L-homocysteine, reference compound]",IC50,MLL2 [5],11.6 µM

# Reference: article PMC9837035 (Nature Communications, 2023)
